Data on five compounds can be found in patent publication US11666519B2, “Personal care compositions with cystine” (Conopco, Inc., priority 2016, dated 2023).

Data set [1] is described as follows: Solubility of L-cystine neutralized with fatty acids, HPLC (Example 5). Conditions: for Solubility ppm cystine: excess L-cystine in NaOH neutralized with the named acid, equilibrated at least 72 hours, filtered, HPLC, 3 replicas; for pH: pH of the cystine solution neutralized with the named acid. On the procedure:
Solubility of cystine was determined in the presence of alternative fatty acids. […] The precipitate upon neutralization was equilibrated with saturated solution for at least 72 hours. The solutions were then filtered through 0.45 micrometer PTFE or nylon (for C12) syringe filter and analysed on HPLC for cystine concentration.

The conditions of data set [2]: cited from earlier work.
A short description of data set [3]: Microscopy of cystine crystals recrystallized from high pH solution in hystric acid/KOH acid soap mixtures (Example 1). The class given is physicochemical. On the procedure: The size of crystals can be estimated by microscopy.
The soap/acid emulsions were prepared using hystric acid (55% palmitic acid/45% stearic acid) by melting the hystric acid at 75° C. and adding this melted acid to aqueous phase consisting of KOH. […] Solubilized cystine in high pH solution was then added to the acid/soap mixture as high pH solution. Depending on the procedure of addition, differences in final formulations have been achieved.
Formula A was prepared by dissolving the cystine in hot KOH solution. Melted hystric acid was then added to this hot (75° C.) aqueous solution of cystine, mixed and let cool down to room temperature while mixing. Formula B was prepared by adding the melted hystric acid to hot KOH solution, and adding the high pH solution of cystine while mixing all ingredients at 75° C. Formula C was prepared by adding the melted hystric acid to hot KOH solution, creating thus soap, cooling the soap to 50° C. and then adding the high pH solution of cystine The resulting acid soap mixtures were observed under microscope for the formation of cystine crystals. […] Addition of cystine solution to acid soap mixture at 50-60° C. is preferred as only small particles are formed. At this temperature the majority of acid soap exists in lamellar liquid crystal or lamellar gel with vary narrow aqueous layer creating a restrictive environment for cystine crystal growth. […]

The procedure of data set [4]:
Additional samples with decreasing concentration of cystine were prepared to find the solubility limit for cystine in acid soap mixture. Samples in table 2 were prepared by Process A in table 1.
The samples were evaluated under microscope on the hot plate at 80° C.

The procedure of data set [5]:
The compositional examples are in the table 3 below. The samples in table 3 were prepared by process C in table 1.
The results in Table 3 illustrate that other ingredients can be added to the inventive compositions, as long as lamellar bilayer liquid crystal or liquid gel structure remains intact.
This is another data set of the same source.

In data set [1], `O=C(O)/C=C\C(=O)O` [Maleic] had a Solubility ppm cystine of 181.6 ppm and a pH of 6.6.
Turning to `CCCCCCCC/C=C\CCCCCCCC(=O)O` [Oleic acid (C18:1), Oleic acid], in data set [1], the Solubility ppm cystine was 246.8 ppm and the pH turned out to be 7.3.
With `N[C@@H](CSSC[C@H](N)C(=O)O)C(=O)O` [cystine], in data set [2], the “natural solubility of cystine” value is 100 ppm. The “average particle size of cystine” value in data set [3] (added from high pH solution to fatty acid-soap lamellar liquid crystal or lamellar gel) is listed as “less than 20 micrometers”. For the same compound, the cystine crystal size result in data set [3] (cystine added at 75 C-80° C. when in the form of oil-in-water emulsion) was “greater than 20 micrometers”. Moreover, in data set [4], the “solubility of cystine in the hystric acid acid/soap media” value is “greater than 700 ppm”. The “solubility of cystine, minimal concentration” value in data set [5] is “greater than 600 ppm”.
For `CCCCCCCCCCCC(=O)O` [Dodecanoic (C12) with NaOH, Dodecanoic], in data set [1], the Solubility ppm cystine was 575 ppm and the pH was 7.6.
The matching figures for `CCCCCCCCCCCC(=O)O` [Dodecanoic (C12) with KOH, Dodecanoic]: 490.6 ppm and 7.6.
